Patent US7517902B2, “Substituted indazoles, compositions containing the same, and the preparation and use thereof” (Aventis Pharma S.A., priority 2004, dated 2009)
pIC50: −log10 of the molar value. Counter-ions that a name gives are not always drawn.

Legend:
Assay type in all cases: biochemical
[1] = target: T1, human KDR enzyme (Homo sapiens, UniProt P35968); assay: KDR substrate phosphorylation assay (scintillation, 96-well plate)
T1 construct: The cytoplasmic domain of the human KDR enzyme was cloned in the form of a GST fusion; GST; made in house; host or cells: SF21 insect cells (baculovirus, pFastBac)
Procedure: The inhibitory effect of the compounds is determined in an assay of substrate phosphorylation by the KDR enzyme in vitro using a scintillation technique (96-well plate, NEN).
The cytoplasmic domain of the human KDR enzyme was cloned in the form of a GST fusion into the baculovirus expression vector pFastBac. The protein was expressed in SF21 cells and purified to approximately 60% homogeneity.
The KDR kinase activity is measured in 20 mM MOPS, 10 mM MgCl2, 10 mM MnCl2, 1 mM DTT, 2.5 mM EGTA, 10 mM β-glycerophosphate, pH=7.2, in the presence of 10 mM MgCl2, 100 μM Na3VO4, 1 mM NaF. 10 μl of the compound are added to 70 μl of kinase buffer, containing 100 ng of KDR enzyme at 4° C. The reaction is triggered by adding 20 μl of solution containing 2 μg of substrate (SH2-SH3 fragment of PLCγ expressed in the form of a GST fusion protein), 2 μCi γ^33P[ATP] and 2 μM cold ATP. After 1 hour of incubation at 37° C., the reaction is stopped by adding 1 volume (100 μl) of 200 mM EDTA. The incubation buffer is withdrawn and the wells are washed three times with 300 μl of PBS. The radioactivity is measured in each well using a Top Count NXT radioactivity counter (Packard).
The background noise is determined by measuring the radioactivity in four different wells containing the radioactive ATP and the substrate alone.
A control for total activity is measured in four different wells containing all of the reagents (γ^33P-[ATP], KDR and PLCγ substrate), but in the absence of compound.
The inhibition of KDR activity with the compound of the invention is expressed in percentage inhibition of the control activity determined in the absence of compound.
The compound SU5614 (Calbiochem) (1 μM) is included in each plate as an inhibition control.

[2] = target: T2, human Tie2 (Homo sapiens, UniProt Q02763); assay: Tie2 assay of PLC phosphorylation (FlashPlate); conditions: read-out: IC 50 TIE2
T2 construct: amino acids of the intracellular domain 776-1124; made in house
Procedure: The coding sequence of human Tie2, corresponding to the amino acids of the intracellular domain 776-1124, was generated by PCR, using the cDNA isolated from human placenta as a model. This sequence was introduced into a baculovirus expression vector pFastBacGT in the form of a GST fusion protein.
The inhibitory effect of the molecules is determined in an assay of PLC phosphorylation by Tie2 in the presence of GST-Tie2 purified to approximately 80% homogeneity. The substrate is composed of the SH2-SH3 fragments of PLC expressed in the form of a GST fusion protein.
The kinase activity of Tie2 is measured in a 20 mM MOPS buffer, pH 7.2, containing 10 mM MgCl2, 10 mM MnCl2, 1 mM DTT, 10 mM of glycerol-phosphate. In a 96-well FlashPlate plate, kept on ice, a reaction mixture is deposited which is composed of 70 μl of kinase buffer containing 100 ng of GST-Tie2 enzyme per well. Subsequently 10 μl of the test molecule diluted to a concentration of 10% maximum in DMvSO are added. For a given concentration, each measurement is carried out in quadruplicate. The reaction is initiated by adding 20 μl of solution containing 2 μg of GST-PLC, 2 μM of cold ATP and 1 μCi of ^33P[ATP]. After 1 hour of incubation at 37° C., the reaction is terminated by adding 1 volume (100 μl) of 200 mM EDTA. Following removal of the incubation buffer, the wells are washed three times with 300 μl of PBS. The radioactivity is measured on a Wallac MicroBeta 1450.
The inhibition of Tie2 activity is calculated and expressed as a percentage inhibition relative to the control activity determined in the absence of compound.

[3] = target: T3, Aurora2 (Homo sapiens, UniProt O14965); assay: Aurora2 enzyme assay, NuMA substrate phosphorylation (Flashplate); conditions: read-out: IC 50 Aurora2
T3 construct: Aurora 2: whole recombinant protein comprising an N-terminal histidine tail; His tag (histidine tail) (N); made in house; host or cells: E. coli
T3 sequence (O14965 1-403): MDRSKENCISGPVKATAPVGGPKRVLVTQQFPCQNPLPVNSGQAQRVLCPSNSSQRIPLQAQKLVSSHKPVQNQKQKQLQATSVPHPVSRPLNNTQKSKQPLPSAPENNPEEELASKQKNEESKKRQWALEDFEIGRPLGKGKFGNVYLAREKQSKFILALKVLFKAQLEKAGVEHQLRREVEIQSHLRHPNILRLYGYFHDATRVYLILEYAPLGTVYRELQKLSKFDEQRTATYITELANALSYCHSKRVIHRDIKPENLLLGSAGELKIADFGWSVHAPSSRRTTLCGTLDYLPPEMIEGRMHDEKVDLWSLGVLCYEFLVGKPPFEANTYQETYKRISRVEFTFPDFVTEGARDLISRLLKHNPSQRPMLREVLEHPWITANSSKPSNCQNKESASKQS
Procedure: The inhibitory effect of compounds with respect to the kinases Aurora1 and Aurora2 is determined by an enzyme assay employing radioactivity detection.
The kinase activity of Aurora 1 and Aurora 2 is evaluated by the phosphorylation of the substrate Numa-histidine in the presence of radiolabeled ATP ([^33P]ATP), using 96-well Flashplate plates in which nickel chelate is fixed to the surface of the microplate. The amount of ^33P phosphate incorporated in the NuMA substrate is proportional to the activity of the enzyme Aurora1 or Aurora2.
The proteins are produced in the protein production laboratory of the SanofiAventis group.
Aurora 2: whole recombinant protein comprising an N-terminal histidine tail, expressed in E. coli and purified to more than 82%.
NuMA (nuclear protein that associates with the mitotic apparatus) fragment of 424 amino acids, expressed in E. coli, whose N-terminal end has been labeled with histidine and used as a substrate for the two Aurora enzymes.
The microplates used are 96-well Flash-Plate plates with nickel chelate (Perkin Elmer, model SMP107).
The products for evaluation are incubated in a reaction volume of 100 μL per well in the presence of 10 nM of Aurora 1 or Aurora 2, 500 nM of NuMA substrate in a buffer composed of 50 mM of Tris/HCl (pH 7.5), 50 mM NaCl, 5 mM MgCl2 (Aurora-B) or 10 mM MgCl2 (Aurora-A) and 1 mM of DTT, at 37° C.
In each well, 80 μL of the enzyme/substrate incubation buffer are distributed, followed by 10 μL of the product to be evaluated, in variable concentrations. The reaction is initiated by adding 1 μM of final ATP containing 0.2 μCi of [^33P]ATP (10 μL). After 30 minutes of incubation, the reaction is terminated by simply removing the reaction buffer and each well is washed twice with 300 μl of the Tris/HCl buffer. The radioactivity is then measured in each well by means of a scintillation apparatus, Packard, Top count model.
The control enzyme activity of Aurora is expressed by the number of counts per minute obtained within 30 minutes, after deduction of the background noise (reaction mixture not containing the enzyme). The evaluation of the various test products is expressed in percentage inhibition of the Aurora activity relative to the control.

T2 sequence (Q02763 776-1124): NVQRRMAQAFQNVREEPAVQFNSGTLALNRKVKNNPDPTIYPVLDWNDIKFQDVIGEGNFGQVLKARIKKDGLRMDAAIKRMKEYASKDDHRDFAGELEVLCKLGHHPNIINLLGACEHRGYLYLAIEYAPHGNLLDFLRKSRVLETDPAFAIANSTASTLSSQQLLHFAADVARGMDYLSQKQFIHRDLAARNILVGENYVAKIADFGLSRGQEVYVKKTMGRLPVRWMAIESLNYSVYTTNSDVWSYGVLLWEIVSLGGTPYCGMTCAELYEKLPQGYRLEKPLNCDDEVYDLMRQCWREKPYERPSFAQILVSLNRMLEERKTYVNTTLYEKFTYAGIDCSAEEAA
T1 sequence (P35968 786-1356 limits assumed): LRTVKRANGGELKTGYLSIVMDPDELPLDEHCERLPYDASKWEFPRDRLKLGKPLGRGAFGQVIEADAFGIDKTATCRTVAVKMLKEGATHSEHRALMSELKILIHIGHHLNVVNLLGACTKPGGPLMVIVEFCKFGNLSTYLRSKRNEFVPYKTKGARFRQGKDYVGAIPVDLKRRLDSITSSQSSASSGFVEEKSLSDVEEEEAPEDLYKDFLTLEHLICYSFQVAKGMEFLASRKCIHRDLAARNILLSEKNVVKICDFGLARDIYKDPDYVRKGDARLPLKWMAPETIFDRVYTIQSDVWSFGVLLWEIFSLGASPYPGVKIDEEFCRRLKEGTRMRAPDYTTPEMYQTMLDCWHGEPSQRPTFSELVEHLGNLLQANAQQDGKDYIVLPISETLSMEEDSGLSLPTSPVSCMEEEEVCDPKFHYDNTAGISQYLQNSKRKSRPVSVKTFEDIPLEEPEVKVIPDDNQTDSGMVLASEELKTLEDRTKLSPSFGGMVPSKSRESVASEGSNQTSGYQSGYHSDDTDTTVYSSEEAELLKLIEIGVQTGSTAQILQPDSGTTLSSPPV

pIC50 [1]	pIC50 [2]	pIC50 [3]	Compound
7.40	7.70	7.55	O=C(Nc1ccc(-c2ccc3c(NC(=O)c4ccsc4)n[nH]c3c2F)cc1)Nc1cccc(C(F)(F)F)c1 [Example 15, 1-(4-{7-Fluoro-3-[(thiophen-3-yl)carbonylamino]-1H-indazol-6-yl}phenyl)-3-(5-trifluoromethylphenyl)urea]
7.43	7.96	6.73	O=C(Nc1ccc(-c2ccc3c(NC(=O)c4ccsc4)n[nH]c3c2F)cc1F)Nc1cc(C(F)(F)F)ccc1F [Example 11, 1-(4-{7-Fluoro-3-[(thiophen-3-yl)carbonylamino]-1H-indazol-6-yl}-2-fluorophenyl)-3-(2-fluoro-5-trifluoromethylphenyl)urea]
7.72	8.52	6.85	Cc1ccc(-n2nc(C(C)(C)C)cc2NC(=O)Nc2ccc(-c3ccc4c(NC(=O)c5ccsc5)n[nH]c4c3F)cc2)cc1 [Example 16, 1-(4-{7-Fluoro-3-[(thiophen-3-yl)carbonylamino]-1H-indazol-6-yl}phenyl)-3-(5-tert-butyl-2-p-tolyl-2H-pyrazol-3-yl)urea]
–	6.30	7.20	Nc1n[nH]c2c(F)c(-c3ccc(NC(=O)Nc4ccccc4)cc3)ccc12 [Example 20, 1-[4-(3-Amino-7-fluoro-1H-indazol-6-yl)phenyl]-3-phenylurea]
7.54	7.51	7.19	CC(C)(C)c1cc(NC(=O)Nc2ccc(-c3ccc4c(NC(=O)c5ccsc5)n[nH]c4c3F)cc2)no1 [Example 13, 1-(4-{7-Fluoro-3-[(thiophen-3-yl)carbonylamino]-1H-indazol-6-yl}phenyl)-3-(5-tert-butylisoxazol-3-yl)urea]
7.07	6.76	7.17	CC(C)(C)c1cc(NC(=O)Nc2ccc(-c3ccc4c(N)n[nH]c4c3F)cc2)no1 [Example 21, 1-[4-(3-Amino-7-fluoro-1H-indazol-6-yl)phenyl]-3-(5-tert-butylisoxazol-3-yl)urea]
–	6.64	–	O=C(Nc1ccc(-c2ccc3c(NC(=O)c4ccsc4)n[nH]c3c2F)cn1)Nc1cc(C(F)(F)F)ccc1F [Example 24, 1-(5-{7-Fluoro-3-[(thiophen-3-yl)carbonylamino]-1H-indazol-6-yl}pyridin-2-yl)-3-(2-fluoro-5-trifluoromethylphenyl)urea]
8.10	8.05	7.44	O=C(Nc1ccc(-c2ccc3c(NC(=O)c4ccsc4)n[nH]c3c2F)cc1)Nc1cc(C(F)(F)F)ccc1F [Example 6, 1-(4-{7-Fluoro-3-[(thiophen-3-yl)carbonylamino]-1H-indazol-6-yl}phenyl)-3-(2-fluoro-5-trifluoromethylphenyl)urea]
5.38	7.30	7.64	O=C(Nc1ccc(-c2ccc3c(NC(=O)c4ccsc4)n[nH]c3c2F)cc1)Nc1ccccc1F [Example 14, 1-(4-{7-Fluoro-3-[(thiophen-3-yl)carbonylamino]-1H-indazol-6-yl}phenyl)-3-(2-fluorophenyl)urea]
6.91	7.29	6.76	Nc1n[nH]c2c(F)c(-c3ccc(NC(=O)Nc4cc(C(F)(F)F)ccc4F)cc3)ccc12 [Example 7, 1-[4-(3-Amino-7-fluoro-1H-indazol-6-yl)phenyl]-3-(2-fluoro-5-trifluoro-methylphenyl)urea hydrochloride]
5.71	5.23	6.84	Nc1n[nH]c2c(F)c(-c3ccc(NC(=O)Nc4ccccc4F)cc3)ccc12 [Example 22, 1-[4-(3-Amino-7-fluoro-1H-indazol-6-yl)phenyl]-3-(2-fluorophenyl)urea]
5.56	7.44	7.85	O=C(Nc1ccccc1)Nc1ccc(-c2ccc3c(NC(=O)c4ccsc4)n[nH]c3c2F)cc1 [Example 12, 1-(4-{7-Fluoro-3-[(thiophen-3-yl)carbonylamino]-1H-indazol-6-yl}phenyl)-3-phenylurea]
7.96	7.77	7.03	Cc1ccc(-n2nc(C(C)(C)C)cc2NC(=O)Nc2ccc(-c3ccc4c(N)n[nH]c4c3F)cc2)cc1 [Example 25, 1-[4-(3-Amino-7-fluoro-1H-indazol-6-yl)phenyl]-3-(5-tert-butyl-2-p-tolyl-2H-pyrazol-3-yl)urea]
7.10	6.84	6.47	CC(=O)Nc1n[nH]c2c(F)c(-c3ccc(NC(=O)Nc4cc(C(F)(F)F)ccc4F)cc3)ccc12 [Example 27, 1-(4-{7-Fluoro-3-acetylamino-1H-indazol-6-yl}phenyl)-3-(2-fluoro-5-trifluoromethylphenyl)urea]
6.79	6.10	6.33	Nc1ccc(-c2ccc3c(NC(=O)c4ccsc4)n[nH]c3c2F)cc1 [Example 4, 6-(4-Aminophenyl)-7-fluoro-3-[(thiophen-3-yl)carbonylamino]-1H-indazole hydrochloride]
